According to patent US10738056B2 (Aduro BioTech, Inc., priority 2017, dated 2020):
Where two headings read alike, the source gives them in different places.

How the values were obtained:
[1] = test system: cGAS/STING pathway in THP1 cells; assay: THP1 cell-based cGAS/STING pathway activity assay (IRF-3-linked luciferase reporter)
From the text: A cellular assay can be used to assess the compounds of the invention for their ability to inhibit the cGAS/STING pathway. Cells that express a luciferase-based reporter that is linked to IRF-3 activation are used to determine response as a function of compound concentration. Such an assay is described in Vincent et al., Nature Communications 2017, 8(1):750, doi: 10.1038/s41467-017-00833-9.
A cellular assay can be used to assess the compounds of the invention for their ability to inhibit the cGAS/STING pathway. Cells that express a luciferase-based reporter that is linked to IRF-3 activation are used to determine response as a function of compound concentration. Such an assay is described in Vincent et al., Nature Communications 2017, 8(1):750, doi: 10.1038/s41467-017-00833-9. Compounds of the invention were assessed using similar assay methods in a THP1 cell assay to generate IC50 values as provided in the following Table 16. In this table, activity level “A” indicates an IC50 value less than 20 μM, “B” indicates an IC50 value between 20 and 100 μM, and “C” indicates an IC50 value above the upper limit of the assay (100 μM), or where an IC50 value could not be generated from the data.

[2] = target: Human cGAS amino acids 155-522 (Homo sapiens (Human), UniProt Q8N884); assay: cGAS biochemical activity assay (ATP remaining, Kinase-Glo Max luminescence); details: human cGAS 155-522, ATP remaining (Kinase-Glo Max); read-out: cGAS IC50
Sequence of Human cGAS amino acids 155-522 (Q8N884 157-522): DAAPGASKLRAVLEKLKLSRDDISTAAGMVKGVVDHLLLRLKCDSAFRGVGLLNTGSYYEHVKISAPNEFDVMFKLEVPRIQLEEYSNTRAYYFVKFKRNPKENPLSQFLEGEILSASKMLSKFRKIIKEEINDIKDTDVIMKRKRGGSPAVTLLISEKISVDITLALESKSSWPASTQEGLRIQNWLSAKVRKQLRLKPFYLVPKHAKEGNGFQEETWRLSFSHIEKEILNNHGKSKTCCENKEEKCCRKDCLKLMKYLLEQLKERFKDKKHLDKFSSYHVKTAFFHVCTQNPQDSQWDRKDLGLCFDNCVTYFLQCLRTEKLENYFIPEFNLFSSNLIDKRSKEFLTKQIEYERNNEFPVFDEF

SMILES	IC50 ([1]; Homo sapiens, THP-1) [µM]	IC50 [2] [µM]	IC50 ([1]; read-out: THP-1 IC50) [µM]
COc1ccc2oc(-c3c(C)[nH]c4c(-c5ccccc5)c(C(F)(F)F)nn4c3=O)nc2c1 [Compound C1012, 6-(5-methoxybenzo[d]oxazol-2-yl)-5-methyl-3-phenyl-2-(trifluoromethyl)pyrazolo[1,5-a]pyrimidin-7(4H)-one]	< 20	> 250	
COCCn1ccc(NC(=O)c2c(C)[nH]c3c(-c4ccccc4)c(C(F)(F)F)nn3c2=O)n1 [Compound A1115, N-(1-(2-methoxyethyl)-1H-pyrazol-3-yl)-5-methyl-7-oxo-3-phenyl-2-(trifluoromethyl)-4,7-dihydropyrazolo[1,5-a]pyrimidine-6-carboxamide]	> 100	20 to 250	
Cc1[nH]c2c(-c3ccccc3)c(C(F)(F)F)nn2c(=O)c1-c1nnc(-c2ccco2)o1 [Compound D1007, 6-(5-(furan-2-yl)-1,3,4-oxadiazol-2-yl)-5-methyl-3-phenyl-2-(trifluoromethyl)pyrazolo[1,5-a]pyrimidin-7(4H)-one]	20 to 100	> 250	
COc1ccc(NC(=O)c2c(C)[nH]c3c(-c4ccccc4)c(C(F)(F)F)nn3c2=O)cn1 [Compound A1088, N-(6-methoxypyridin-3-yl)-5-methyl-7-oxo-3-phenyl-2-(trifluoromethyl)-4,7-dihydropyrazolo[1,5-a]pyrimidine-6-carboxamide]	20 to 100	20 to 250	
Cc1[nH]c2c(-c3ccccc3)c(C(F)(F)F)nn2c(=O)c1-c1nc2c(S(C)(=O)=O)cccc2o1 [Compound C1054, 5-methyl-6-(4-(methylsulfonyl)benzo[d]oxazol-2-yl)-3-phenyl-2-(trifluoromethyl)pyrazolo[1,5-a]pyrimidin-7(4H)-one]	> 100	20 to 250	
COc1cccc(CS(=O)(=O)NC(=O)c2c(C)[nH]c3c(-c4ccccc4)c(C(F)(F)F)nn3c2=O)c1 [Compound A1132, N-((3-methoxybenzyl)sulfonyl)-5-methyl-7-oxo-3-phenyl-2-(trifluoromethyl)-4,7-dihydropyrazolo[1,5-a]pyrimidine-6-carboxamide]	20 to 100	< 20	
COc1cccc2oc(-c3c(N4CCCC(C(=O)O)C4)[nH]c4c(-c5ccccc5)c(C(F)(F)F)nn4c3=O)nc12 (stereo not drawn) [Compound C1257, 1-(6-(4-methoxybenzo[d]oxazol-2-yl)-7-oxo-3-phenyl-2-(trifluoromethyl)-4,7-dihydropyrazolo[1,5-a]pyrimidin-5-yl)piperidine-3-carboxylic acid]	> 100	< 20	
Cc1[nH]c2c(-c3ccccc3)c(C(F)(F)F)nn2c(=O)c1-c1nc2c(OCCNS(C)(=O)=O)cccc2o1 [Compound C1066, N-(2-((2-(5-methyl-7-oxo-3-phenyl-2-(trifluoromethyl)-4,7-dihydropyrazolo[1,5-a]pyrimidin-6-yl)benzo[d]oxazol-4-yl)oxy)ethyl)methanesulfonamide]	> 100	< 20	
Cc1[nH]c2c(-c3ccccc3)c(C(F)(F)F)nn2c(=O)c1C1=NC(C(=O)O)[C@H](C)O1 (stereo partly drawn) [Compound C1216, (5S)-5-methyl-2-(5-methyl-7-oxo-3-phenyl-2-(trifluoromethyl)-4,7-dihydropyrazolo[1,5-a]pyrimidin-6-yl)-4,5-dihydrooxazole-4-carboxylic acid]	> 100	< 20	

The remaining lines, values ahead:

IC50 ([1]; Homo sapiens, THP-1) [µM]	IC50 [2] [µM]	IC50 ([1]; read-out: THP-1 IC50) [µM]	SMILES
> 100	< 20		Cc1[nH]c2c(-c3ccccc3)c(C(F)(F)F)nn2c(=O)c1-c1nnc(C2CCCCO2)o1 (stereo not drawn) [Compound D1024, 5-methyl-3-phenyl-6-(5-(tetrahydro-2H-pyran-2-yl)-1,3,4-oxadiazol-2-yl)-2-(trifluoromethyl)pyrazolo[1,5-a]pyrimidin-7(4H)-one]
> 100	< 20		COCc1nnc(-c2c(C)[nH]c3c(-c4ccccc4)c(C(F)(F)F)nn3c2=O)o1 [Compound D1019, 6-(5-(methoxymethyl)-1,3,4-oxadiazol-2-yl)-5-methyl-3-phenyl-2-(trifluoromethyl)pyrazolo[1,5-a]pyrimidin-7(4H)-one]
20 to 100	< 20		COc1cc(C(N)=O)cc2oc(-c3c(C)[nH]c4c(-c5ccccc5)c(C(F)(F)F)nn4c3=O)nc12 [Compound C1149, 4-methoxy-2-(5-methyl-7-oxo-3-phenyl-2-(trifluoromethyl)-4,7-dihydropyrazolo[1,5-a]pyrimidin-6-yl)benzo[d]oxazole-6-carboxamide]
> 100	< 20		COCc1[nH]c2c(-c3ccccc3)c(C#N)nn2c(=O)c1-c1nc2c(OC)nc(N)cc2o1 [Compound C1227, 6-(6-amino-4-methoxyoxazolo[4,5-c]pyridin-2-yl)-5-(methoxymethyl)-7-oxo-3-phenyl-4,7-dihydropyrazolo[1,5-a]pyrimidine-2-carbonitrile]
20 to 100	< 20		Cc1[nH]c2c(-c3ccccc3)c(C(F)(F)F)nn2c(=O)c1C(=O)NS(=O)(=O)c1ccccc1 [Compound A1116, 5-methyl-7-oxo-3-phenyl-N-(phenylsulfonyl)-2-(trifluoromethyl)-4,7-dihydropyrazolo[1,5-a]pyrimidine-6-carboxamide]
20 to 100	< 20		COc1ccc(C#N)c2oc(-c3c(C)[nH]c4c(-c5ccccc5)c(C(F)(F)F)nn4c3=O)nc12 [Compound C1100, 4-methoxy-2-(5-methyl-7-oxo-3-phenyl-2-(trifluoromethyl)-4,7-dihydropyrazolo[1,5-a]pyrimidin-6-yl)benzo[d]oxazole-7-carbonitrile]
< 20	< 20		COc1cc(C(C)O)cc2oc(-c3c(C)[nH]c4c(-c5ccccc5)c(C#N)nn4c3=O)nc12 (stereo not drawn) [Compound C1240, 6-(6-(1-hydroxyethyl)-4-methoxybenzo[d]oxazol-2-yl)-5-methyl-7-oxo-3-phenyl-4,7-dihydropyrazolo[1,5-a]pyrimidine-2-carbonitrile]
	< 20	< 20	CO[C@H]1CCCCC1c1nnc(-c2c(C)[nH]c3c(-c4ccccc4)c(C(F)(F)F)nn3c2=O)o1 (stereo partly drawn) [D1046 Iso-1]
20 to 100	< 20		Cc1[nH]c2c(-c3ccccc3)c(C(F)(F)F)nn2c(=O)c1-c1nc2c(OCC(N)=O)cccc2o1 [Compound C1122, 2-((2-(5-methyl-7-oxo-3-phenyl-2-(trifluoromethyl)-4,7-dihydropyrazolo[1,5-a]pyrimidin-6-yl)benzo[d]oxazol-4-yl)oxy)acetamide]
> 100	< 20		Cc1[nH]c2c(-c3ccccc3)c(C(F)(F)F)nn2c(=O)c1-c1nnc(-c2ccnc(O)c2)o1 [Compound D1085, 6-(5-(2-hydroxypyridin-4-yl)-1,3,4-oxadiazol-2-yl)-5-methyl-3-phenyl-2-(trifluoromethyl)pyrazolo[1,5-a]pyrimidin-7(4H)-one]
> 100	< 20		COC[C@@H]1COC(c2c(C)[nH]c3c(-c4ccccc4)c(C(F)(F)F)nn3c2=O)=N1 [Compound C1184, (R)-6-(4-(methoxymethyl)-4,5-dihydrooxazol-2-yl)-5-methyl-3-phenyl-2-(trifluoromethyl)pyrazolo[1,5-a]pyrimidin-7(4H)-one]
20 to 100	< 20		COc1cccc2nc(-c3c(C)[nH]c4c(-c5ccccc5)c(C(F)(F)F)nn4c3=O)oc12 [Compound C1022, 6-(7-methoxybenzo[d]oxazol-2-yl)-5-methyl-3-phenyl-2-(trifluoromethyl)pyrazolo[1,5-a]pyrimidin-7(4H)-one]
